Source: patent EP2766361B1, “8-CARBAMOYL-2-(2,3-DISUBSTITUTED PYRID-6-YL)-1,2,3,4-TETRAHYDROISOQUINOLINE DERIVATIVES AS APOPTOSIS-INDUCING AGENTS FOR THE TREATMENT OF CANCER AND IMMUNE AND AUTOIMMUNE DISEASES” (priority 2011, dated 2013)
pEC50: −log10 of the molar value.

What was measured:
[1] = tested on: Molt-4 human acute lymphoblastic leukemia cells; assay: Molt-4 cellular assay (cell viability, MTS); assay type: cell-based; details: 10% human serum, 48 hours
Method: Molt-4 (ATCC, Manassas, VA) human acute lymphoblastic leukemia cells were plated 50,000 cells per well in 96-well tissue culture plates in a total volume of 100 µL tissue culture medium supplemented with 10% human serum (Invitrogen, Carlsbad, CA) and treated with a 3-fold serial dilution of the compounds of interest from 5 µM to […]. Each concentration was tested in duplicate at least 3 separate times. The number of viable cells following 48 hours of compound treatment was determined using the CellTiter 96® Aqueous non-radioactive cell proliferation MTS assay according to manufacturer's recommendations (Promega Corp., Madison, WI).

[2] = tested on: mouse FL5.12 cells transfected with Bcl-xL; assay: FL5.12 cellular assay (cell viability, CellTiter-Glo); assay type: cell-based; details: IL-3-depleted, 3% FBS assay media, 24 hours, read-out: FL5.12 Bcl-xL, -IL3, EC50
Method: Cell viability was assayed using the CellTiter-Glo assay (Promega Corp., Madison, WI) according to the manufacturer instructions. Individual determinations were the result of duplicate values. […] Table 2. In Vitro Data

[3] = Single dose pharmacokinetics, oral bioavailability; assay type: in vivo, Sprague-Dawley rats; details: for bioavailability: rat, in vivo, po
Method: The single dose pharmacokinetics of select compounds were evaluated in Sprague-Dawley rats (Charles River) after a 5 mg/kg oral dose (n = 3) (10% DMSO in PEG-400) administered by gavage or by 5 mg/kg IV bolus dose (n = 3) (10% DMSO in PEG-400). Compound and the internal standard were separated from each other and coextracted contaminants on a 50 mm × 3 mm Keystone Betasil CN 5 µm column with an acetonitrile/0.1% trifluoroacetic acid mobile phase (50:50, by volume) at a flow rate of 0.7 mL/min. Analysis was performed on a Sciex API3000 biomolecular mass analyzer with a heated nebulizer interface. Compound and internal standard peak areas were determined using Sciex MacQuan software. The plasma drug concentration of each sample was calculated by least-squares linear regression analysis (nonweighted) of the peak area ratio (parent/internal standard) of the spiked plasma standards versus concentration. The plasma concentration data were submitted to multiexponential curve fitting using WinNonlin.3. The area under the plasma concentration-time curve was calculated using the linear trapezoidal rule for the plasma concentration-time profiles.
One way to calculate bioavailability of a drug or agent is by dividing the plasma concentration following an oral dose by the concentration following an intravenous dose.

Structure (SMILES)	pEC50 [1]	pEC50 [2]	F (%), dose ([3]; Rat p.o. dose, 5 mpk)	bioavailability ([3]; 5 mg/kg)	bioavailability ([3]; 1 mg/kg)
Cc1c(-c2ccc(N3CCc4cccc(C(=O)Nc5nc6ccccc6s5)c4C3)nc2C(=O)O)cnn1CC12CC3CC(CC(C3)C1)C2 [Example 3, 6-[8-(1,3-benzothiazol-2-ylcarbamoyl)-3,4-dihydroisoquinolin-2(1H)-yl]-3-[5-methyl-1-(tricyclo[3.3.1.1^3,7]dec-1-ylmethyl)-1H-pyrazol-4-yl]pyridine-2-carboxylic acid]	8.22	> 9.00	[…]		
O=C(Nc1nc2ccccc2s1)c1cccc2c1CN(c1ccc(-c3cnn(CC45CC6CC(CC(C6)O4)C5)c3)c(C(=O)O)n1)CC2 [Example 13, 6-[8-(1,3-benzothiazol-2-ylcarbamoyl)-3,4-dihydroisoquinolin-2(1H)-yl]-3-[1-(2-oxatricyclo[3.3.1.1^3,7]dec-1-ylmethyl)-1H-pyrazol-4-yl]pyridine-2-carboxylic acid]		7.15		10%	
COC12CC3CC(CC(Cn4ncc(-c5ccc(N6CCc7cccc(C(=O)Nc8nc9ccccc9s8)c7C6)nc5C(=O)O)c4C)(C3)C1)C2 [Example 16, 6-[8-(1,3-benzothiazol-2-ylcarbamoyl)-3,4-dihydroisoquinolin-2(1H)-yl]-3-(1-{[3-methoxytricyclo[3.3.1.1^3,7]dec-1-yl]methyl}-5-methyl-1H-pyrazol-4-yl)pyridine-2-carboxylic acid]		> 9.00		20%	
Cc1c(-c2ccc(N3CCc4cccc(C(=O)Nc5nc6ccccc6s5)c4C3)nc2C(=O)NS(=O)(=O)C2CC2)cnn1CC12CC3CC(CC(C3)C1)C2 [Example 18, N-(1,3-benzothiazol-2-yl)-2-{6-[(cyclopropylsulfonyl)carbamoyl]-5-[5-methyl-1-(tricyclo[3.3.1.1^3,7]dec-1-ylmethyl)-1H-pyrazol-4-yl]pyridin-2-yl}-1,2,3,4-tetrahydroisoquinoline-8-carboxamide]	7.62	9.00		31%	
Cc1c(-c2ccc(N3CCc4cccc(C(=O)Nc5nc6cccnc6s5)c4C3)nc2C(=O)O)cnn1CC12CC3CC(CC(C3)C1)C2 [Example 24, 3-[5-methyl-1-(tricyclo[3.3.1.1^3,7]dec-1-ylmethyl)-1H-pyrazol-4-yl]-6-[8-([1,3]thiazolo[5,4-b]pyridin-2-ylcarbamoyl)-3,4-dihydroisoquinolin-2(1H)-yl]pyridine-2-carboxylic acid]		> 9.00		29%	
O=C(Nc1nc2ccccc2s1)c1cccc2c1CN(c1ccc(-c3cnn(CC45CC6CC(CC(C6)C4)C5)c3Cl)c(C(=O)O)n1)CC2 [Example 42, 6-[8-(1,3-benzothiazol-2-ylcarbamoyl)-3,4-dihydroisoquinolin-2(1H)-yl]-3-{5-chloro-1-[tricyclo[3.3.1.1^3,7]dec-1-ylmethyl]-1H-pyrazol-4-yl}pyridine-2-carboxylic acid]		9.30			15%
Cc1c(-c2ccc(N3CCc4cccc(C(=O)Nc5nc6ccccc6s5)c4C3C)nc2C(=O)O)cnn1CC12CC3CC(CC(C3)C1)C2 (centres unmarked) [Example 43, 6-[8-(1,3-benzothiazol-2-ylcarbamoyl)-1-methyl-3,4-dihydroisoquinolin-2(1H)-yl]-3-[5-methyl-1-(tricyclo[3.3.1.1^3,7]dec-1-ylmethyl)-1H-pyrazol-4-yl]pyridine-2-carboxylic acid]		8.05			20%
COCCC1(Cn2ncc(-c3ccc(N4CCc5cccc(C(=O)Nc6nc7ccccc7s6)c5C4)nc3C(=O)O)c2C)CCCCCCC1 [Example 46, 6-[8-(1,3-benzothiazol-2-ylcarbamoyl)-3,4-dihydroisoquinolin-2(1H)-yl]-3-(1-{[1-(2-methoxyethyl)cyclooctyl]methyl}-5-methyl-1H-pyrazol-4-yl)pyridine-2-carboxylic acid]		9.00			58%
Cc1c(-c2ccc(N3CCc4cccc(C(=O)Nc5cn6ccccc6n5)c4C3)nc2C(=O)O)cnn1CC12CC3CC(CC(C3)C1)C2 [Example 49, 6-[8-(imidazo[1,2-a]pyridin-2-ylcarbamoyl)-3,4-dihydroisoquinolin-2(1H)-yl]-3-[5-methyl-1-(tricyclo[3.3.1.1^3,7]dec-1-ylmethyl)-1H-pyrazol-4-yl]pyridine-2-carboxylic acid]		8.30			15%
Cc1c(-c2ccc(N3CCc4cccc(C(=O)Nc5nc6ccccc6s5)c4C3)nc2C(=O)O)cnn1CC12CC3CC(CC(C3)O1)C2 [Example 59, 6-[8-(1,3-benzothiazol-2-ylcarbamoyl)-3,4-dihydroisoquinolin-2(1H)-yl]-3-[5-methyl-1-(2-oxatricyclo[3.3.1.1^3,7]dec-1-ylmethyl)-1H-pyrazol-4-yl]pyridine-2-carboxylic acid]	7.62	9.52			31%
